The results in this text go back to patent publication US9499462B2, “Isolated compounds from turmeric oil and methods of use” (Cognition Therapeutics, Inc., priority 2011, dated 2016).

In data set [1] the test system is Abeta oligomer-induced acceleration of exocytosis (membrane trafficking) in primary neurons. In words: Exocytosis / MTT membrane trafficking assay in mature primary neurons treated with Abeta oligomers. Type of data set: cell-based, Sprague-Dawley rat. To be noted: for block of Abeta oligomer effects on membrane trafficking (in words): primary neurons in vitro; for potency relative to the parent CT0093 (in words) / efficacy relative to the parent CT0093 (in words): 21DIV primary neurons. The method, then: Primary neurons from E18 Sprague-Dawley rat embryos are plated at optimized concentrations in 384 well plates in NB media (Invitrogen). Neurons are maintained in cultures for 3 weeks, with twice weekly feeding of NB media with N2 supplement (Invitrogen). A test compound is added to cells, followed by addition of Vehicle or Abeta oligomer preparations (1.5 μM), and incubated for 1 to 24 hr. at 37° C. in 5% CO2. MTT reagent (3-(4,5-dimethylthizaol-2-yl)-2,5diphenyl tetrazolium bromide) (Roche Molecular Biochemicals) is reconstituted in phosphate buffered saline to 5 mg/mL. 10 μL of MTT labeling reagent is added to each well and incubated at 37° C. for 1 h, then imaged.
Each assay plate is formatted so that compounds are tested with and without Abeta on each plate.
Similar procedures for exocytosis assays/MTT assays can be found in the literature. See e.g., Liu Y, et. al., Detecting bioactive amyloid beta peptide species in Alzheimer's disease. J. Neurochem. 2004 November; 91(3):648-56; Liu Y, and Schubert D. “Cytotoxic amyloid peptides inhibit cellular 3-(4,5-dimethylthiazol-2-yl)-2,5-diphenyltetrazolium bromide (MTT) reduction by enhancing MTT formazan exocytosis.” J. Neurochem. 1997 December; 69(6):2285-93; and Liu Y, and Schubert D. “Treating Alzheimer's disease by inactivating bioactive amyloid beta peptide” Curr. Alzheimer Res. 2006 April; 3(2):129-35. Abeta 1-42 oligomers made according to published methods [See e.g. Dahlgren et al., “Oligomeric and fibrillar species of amyloid-beta peptides differentially affect neuronal viability” J Biol. Chem. 2002 Aug. 30; 277(35):32046-53. Epub 2002 Jun. 10. LeVine H 3rd. “Alzheimer's beta-peptide oligomer formation at physiologic concentrations” Anal Biochem. 2004 Dec. 1; 335(1):81-90; Shrestha et. al, “Amyloid beta peptide adversely affects spine number and motility in hippocampal neurons” Mol Cell Neurosci. 2006 November; 33(3):274-82. Epub 2006 Sep. 8; Puzzo et al., “Amyloid-beta peptide inhibits activation of the nitric oxide/cGMP/cAMP-responsive element-binding protein pathway during hippocampal synaptic plasticity” J. Neurosci. 2005 Jul. 20; 25(29):6887-97; Barghorn et al., “Globular amyloid beta-peptide oligomer—a homogenous and stable neuropathological protein in Alzheimer's disease” J. Neurochem. 2005 November; 95(3):834-47. Epub 2005 Aug. 31; Johansson et al., Physiochemical characterization of the Alzheimer's disease-related peptides A beta 1-42 Arctic and A beta 1-42 wt. […] Negative controls include vehicle-treated neurons as well as neurons treated with 28 μM concentrations of memantine. […] These controls, on each plate, serve as normalization tools to calibrate assay performance on a plate-by-plate basis.
Primary neuronal cultures are prepared as follows: Optimal cell density of primary neuronal cultures is determined based on cellular response to Abeta oligomers using the exocytosis assay as a readout, and immunohistochemical analysis of the relative proportion of glia to neurons in the cultures. Cultures are monitored on a weekly basis with immunohistochemistry and image processing-based quantification to monitor the percentage of the cultures that are neurons vs. glia (Glial cells). Cultures containing more than 20% glia (positive for GFAP) vs. neurons (staining positively with antibodies directed against MAP2) at the screening age of 21 days in vitro (21 DIV) are rejected.
Toxicity is monitored in each image-based assay via quantification of nuclear morphology visualized with the DNA binding dye DAPI (Invitrogen). Nuclei that are fragmented are considered to be in late stage apoptosis (Majno and Joris '95). Peptide lots producing unusual peptide size ranges or significant toxicity at a standard 1.5 uM concentration on neurons are rejected.

Data set [2] deals with Abeta oligomer effects on memory. The data set is described as follows: Fear conditioning assay (contextual memory, Abeta oligomer administration). Type of data set: in vivo, mice. The procedure:
CT0109 and CT0093 were tested in an animal model of a memory-dependent behavioral task known as fear conditioning. The study protocol was designed based on published protocols (See e.g. Puzzo D, Privitera L, Leznik E, Fa M, Staniszewski A, Palmeri A, Arancio O. Picomolar amyloid-beta positively modulates synaptic plasticity and memory in hippocampus. J Neurosci. 2008 Dec. 31; 28(53):14537-45.). The formation of contextual memories is dependent upon the integrity of medial temporal lobe structures such as the hippocampus. In this assay mice were trained to remember that a particular salient context (conditioned stimulus; CS) is associated with an aversive event, in this case a mild foot shock (the unconditioned stimulus, US). Animals that show good learning will express an increase in freezing behavior when placed back into the same context. This freezing is absent in a novel context. Increased freezing in the context indicates strong hippocampal-dependent memory formation in animals. Memory tested in Fear Conditioning is sensitive to elevations of soluble Aβ. […] The fear condition model for memory was performed as described herein.

Data set [3] deals with 9 month old male Swe/Ldn mice. In words: Behavioral efficacy in transgenic Swe/Ldn mice (osmotic minipump). Type of data set: in vivo. Particulars: transgenic mouse model of AD. The procedure:
CT0093 was tested for its ability to reverse deficits in 9 month old male Swe/Ldn mice in a pilot study at 1 and 10 mg/kg/day via the osmotic minipump method.
Subcutaneous administration of 10 mg/kg/day of CT0093 (shown in gray squares and solid gray line and solid bar) achieved brain concentrations of 540 nM (FIG. 9).

Data set [4] concerns Abeta oligomer-induced synapse loss. In words: Abeta oligomer-induced synapse loss in vitro. It counts as cell-based.
Another data set is described as follows: in vivo. To be noted: rat, 1 mg/kg.

Entries after “also recorded” stand apart in the source; their conditions may differ.

Experimental for in vivo: PK studies are performed at CEREP Inc. of Redmond Wash., according to their standard protocols: The plasma samples were processed using acetonitrile precipitation and analyzed by HPLC-MS or HPLC-MS/MS. Peak areas were recorded, and the concentrations of the test compound in the unknown plasma samples were determined using the respective calibration curve. The reportable linear range of the assay was determined, along with the lower limit of quantitation (LLQ).
Pharmacokinetic studies were performed according to the following protocols: The plasma samples were processed using acetonitrile precipitation and analyzed by HPLC-MS or HPLC-MS/MS. Peak areas were recorded, and the concentrations of the test compound in the unknown plasma samples were determined using the respective calibration curve. The reportable linear range of the assay was determined, along with the lower limit of quantitation (LLQ).

`COc1cc(CCC(C)NCc2ccc(C(F)(F)F)cc2)ccc1O` (stereo not drawn) [CT0109, 4-(3-(4-(trifluoromethyl)benzylamino)butyl)-2-methoxyphenol]: the EC50 in data set [1] (Rattus norvegicus, Primary neuron, MTT assay, primary neurons, read-out: EC50, block of Abeta oligomer-induced acceleration of exocytosis / oligomer effects on membrane trafficking) stood at 7 µM. The “block of Abeta oligomer effects on membrane trafficking (in words)” value (from here on “block of Abeta oligomer effects … (in words)”) in data set [1] was “effective in both prevention; also recorded: effective at stopping Abeta oligomer mediated effects on membrane trafficking”. Further, the “pharmacological competition with Abeta oligomers” value in data set [1] (synthetic and human Alzheimer's patient-derived oligomers) is “exhibit pharmacological competition with both synthetic (A, B) and human Alzheimer's patient-derived (C, D) oligomers”. In addition, in data set [2] (2 pmol dose, given prior to Abeta oligomers (200 nM), mice), the “block of Abeta oligomer effects on memory” value is on record as “blocked oligomer effects on memory; also recorded: completely blocked the effect of Abeta on memory”. In addition, the adverse behavioral changes result in data set [2] (any dose) is listed as “No adverse behavioral changes were observed”. The “effect of compound alone on memory” value in data set [2] (without Abeta) was “No effect of compound alone was observed”. For the same compound, the “improvement of memory / cognitive performance of transgenic mice” value in data set [3] is recorded as “capable of improving cognitive performance in the transgenic model of AD; also recorded: improve memory deficits in a transgenic mouse model of Alzheimer's disease”. Moreover, in data set [4], the “block of Abeta oligomer-induced synapse loss” value was “inhibition of processed product of amyloid precursor protein-mediated synapse loss”.
`C[N+](C)(C)CCCCCC[N+](C)(C)C` [hexamethonium bromide, reference compound]: the “block of Abeta oligomer effects … (in words)” value in data set [1] was “none were active”.
With `CC12CC3CC(C)(C1)CC(N)(C3)C2` [memantine, reference compound], in data set [1] (Rattus norvegicus, Primary neuron, 28 μM memantine, plate control, read-out: inhibition of oligomer effects), the inhibition at 28 µM turned out to be 50%.
Take `Cc1ccc(C(C)CC(CC(C)(C)O)NCC(C)C)cc1` (stereo not drawn) [CT1297, 4-(isobutylamino)-2-methyl-6-p-tolylheptan-2-ol]: in data set [1], the “potency relative to the parent CT0093 (in words)” value is “significantly less potent than the parent CT0093”. Besides, the “fold less potent than the parent CT0093” value in data set [1] (primary screening assay) is recorded as roughly 2 fold. In “in vivo”, this compound yielded a clearance of 101 ± 12 mL/min/kg and a half-life of 2.68 ± 1.62 h.
With `CC1=CC=C(C(C)CC(CC(C)(C)O)NCC(C)C)CC1` (stereo not drawn) [CT1296, 4-(isobutylamino)-2-methyl-6-(4-methylcyclohexa-1,3-dienyl)heptan-2-ol], in data set [1], the “efficacy relative to the parent CT0093 (in words)” value is reported as “somewhat less efficacious” and the “potency relative to the parent CT0093 (in words)” value is reported as “maintained the potency of the parent compound”. The “efficacy relative to the parent CT0093 (in words)” value in data set [1] (listed as CT01296) is recorded as “slightly less efficacious”. In “in vivo”, this compound displayed a clearance of 120 ± 13 mL/min/kg and a half-life of 1.15 ± 0.0833 h.
For `C[C@]12N[C@H](Cc3ccccc31)c1ccccc12` [MK-801, reference compound], the “block of Abeta oligomer effects … (in words)” value in data set [1] is “none were active”.
Consider `O[C@H]1[C@H](O)[C@@H](O)[C@H](O)[C@@H](O)[C@@H]1O` [scyllo-inositol (AZD-103), scyllo-inositol, reference compound], for which the “block of Abeta oligomer effects … (in words)” value in data set [1] is “none were active”.
